We go through two compounds from ChEMBL document CHEMBL3525919, “Potent inhibition of human sulfotransferase 1A1 by 17α-ethinylestradiol: role of 3'-phosphoadenosine 5'-phosphosulfate binding and structural rearrangements in regulating inhibition and activity” (Drug Metab Dispos, 2012).

The Kd is the concentration at which binding is half-saturated. The term Ki denotes the dissociation constant of the complex between target and ligand, obtained from inhibition or displacement. The IC50 is the concentration that inhibits the measured activity by half.

Assay [1] has as its target T1, Sulfotransferase 1A1 (Homo sapiens, UniProt P50225). The experiment in a line: Binding affinity to human SULT1A1 expressed in Escherichia coli assessed as change in intrinsic fluorescence. The class given is ADME.
Assay [2] concerns the target T1, Sulfotransferase 1A1. The experiment in a line: Binding affinity to human SULT1A1 expressed in Escherichia coli assessed as change in intrinsic fluorescence in presence of 3',5'-phosphoadenosine. Type of assay: ADME.
The target of assay [3] is T1, Sulfotransferase 1A1. Briefly: Inhibition of human SULT1A1 expressed in Escherichia coli assessed as 17beta-estradiol sulfation at 100 nM by Michaelis-Menten equation analysis.
Assay [4] deals with T1, Sulfotransferase 1A1. Briefly: Inhibition of human SULT1A1 expressed in Escherichia coli assessed as p-nitrophenol sulfation at 100 nM by Michaelis-Menten equation analysis.
Assay [5] concerns the target T1, Sulfotransferase 1A1. Briefly: Inhibition of human SULT1A1 expressed in Escherichia coli assessed as beta-naphthol sulfation at 100 nM by Michaelis-Menten equation analysis.
For assay [6], the target named is T1, Sulfotransferase 1A1. Briefly: Inhibition of SULT1A1 in human MCF7 cells assessed as 17beta-estradiol sulfation. The class given is cell-based.

Molecules are shown by their SMILES.

T1 sequence (P50225 whole entry): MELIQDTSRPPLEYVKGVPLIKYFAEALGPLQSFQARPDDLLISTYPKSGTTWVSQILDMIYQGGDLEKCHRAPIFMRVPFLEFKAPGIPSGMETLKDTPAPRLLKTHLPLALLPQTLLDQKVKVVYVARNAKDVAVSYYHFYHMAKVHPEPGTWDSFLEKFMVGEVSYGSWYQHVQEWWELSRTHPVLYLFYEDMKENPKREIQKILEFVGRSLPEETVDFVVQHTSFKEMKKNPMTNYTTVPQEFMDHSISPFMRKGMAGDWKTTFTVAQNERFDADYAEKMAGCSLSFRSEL

`C[C@]12CC[C@@H]3c4ccc(O)cc4CC[C@H]3[C@@H]1CC[C@@H]2O` [ESTRADIOL]: the dissociation constant (Kd) turned out to be 2300 nM in assay [1] and 1200 nM in assay [2].

Take `C#C[C@]1(O)CC[C@H]2[C@@H]3CCc4cc(O)ccc4[C@H]3CC[C@@]21C` [ETHINYL ESTRADIOL]: the Kd in assay [1] was found to be 500 nM; in assay [2], 4.3 nM. The Ki is 14.9 nM in assay [3], 8.9 nM in assay [4] and 19 nM in assay [5]. In addition, the IC50 in assay [6] was 20 nM.
